Assay results from PMC10447287, “Optimisation of Pharmaceutical Cocrystal Dissolution Performance through a Synergistic Precipitation Inhibition” (Pharmaceutical Research, 2023).

Legend:
[1] = Dissolution tests of powder mixtures of FFA-NIC cocrystal with polymers in PBS pH 4.5 (non-sink); type: physicochemical; settings: for incongruent indicator k(t) (molar FFA/NIC in solution): PBS pH 4.5, neat cocrystal; for FFA DPP: reference neat cocrystal in PBS pH 4.5
Protocol: Similarly, in vitro dissolution tests of the powder mixtures of 71.7 mg of the FFA-NIC cocrystals with an individual polymer or a combination in PBS pH 4.5 or PBS pH 6.8 were conducted in triplicate. […], 400 mg of PEG, […], corresponding to their predissolved concentrations used in Section "Dissolution Tests of FFA, the Neat FFA-TP Cocrystal or FFA-NIC Cocrystal Powders in DDW in the Absence and Presence of a Predissolved Polymer or a Combination".
The solid residues obtained from the experiments in PBS pH 4.5 were dried at room temperature and analysed by PXRD.
DPP was used to evaluate the dissolution profile of the test powders in comparison to a reference system, which is defined as,4 DPP=AUCC(t)-AUCCR(t)/AUCCR(t)×100% where AUCC(t) is the area under the curve (AUC) of a dissolution profile C(t) , indicating the amount of drug dissolved is maintained over the period of the dissolution time from 0 to t, and AUCCR(t) is the AUC of a reference dissolution profile CR(t) .
The solids were scanned by D2 phaser diffractometer (Bruker U.K. Limited, Coventry, UK) with […] radiation operating at voltage of 30 kV and current of 10 mA. The scanning angle ranged from 2°-40° of 2θ. The scanning time per step was 0.4 s. The scan step size was 0.02° of 2θ.

[2] = FFA-NIC cocrystal solubility and phase solubility diagrams (PSD); type: physicochemical; settings: for FFA concentration at eutectic point / Ksp / SAB: 37°C
Protocol: For a 1:1 AB cocrystal without consideration of ionization of each component, its molar solubility SAB is calculated as [21]1 SAB=Ksp=CACB where Ksp is the solubility product of the AB cocrystal, and CA and CB (μmol/mL) are the molar concentrations of A and B where the solution is in equilibrium with the solid residues including cocrystal solids. When the solution is in equilibrium with both the drug and cocrystal solids, it is called the eutectic point where the component concentrations in solution are designated as CA_eut and CB_eut .
In order to determine the FFA-NIC cocrystal solubility, the physical mixtures of the FFA I and NIC solids and a constant 10 mL of the medium (i.e., DDW or PBS pH 4.5 in the absence and presence of a predissolved polymer, i.e., 0.2 mg/mL PVP-VA, 1 mg/mL PEG or 0.2 mg/mL SLP, or a combination, i.e., 0.2 mg/mL PVP-VA + 1 mg/mL PEG, 0.2 mg/mL PVP-VA + 0.2 mg/mL SLP), representing 10% w/w and 90% w/w of the total weight of a sample, were used. More than eight different ratios of the FFA I and NIC solids in the physical mixtures (Table S1 in the supporting materials) were prepared and then each of them was transferred into a 20 mL glass vial containing a magnetic stirrer (3 × 20 mm) with 10 mL of the solution prepared above. The samples were placed in the Polar Bear Plus Crystal (Cambridge Reactor Design Ltd, UK) and kept at 37 ± 0.5°C for 24 h. After that, the supernatant of each of the samples was separated from excess solids by centrifugation at 13,000 RPM for 1 min in an MSE Micro Centaur. HPLC was used to determine the concentrations of FFA and NIC. Solid residues obtained from the experiments were dried at room temperature and analysed by PXRD. If the FFA-NIC cocrystal solids were found in the solid residues of a sample ( i ), the molar concentrations of FFA ( CFFA,iexp ) and NIC ( CNIC,iexp ) (μmol/mL) obtained were used to determine the solubility product Ksp,iexp of FFA-NIC cocrystal by2 Ksp,iexp=CFFA,iexp×CNIC,iexp
The optimal solubility product Kspoptimal of FFA-NIC cocrystal is obtained by minimizing the sum square error (SSE) of the optimal value with each of the individual experimental values KSP,iexp .3 Kspoptimal=min∑i=1n(Kspoptimal-ksp,iexp)^2 where n is the total number of vials having the cocrystal solids in the residues.
In this work, the optimal value of Kspopitmal was obtained using the inbuilt “fminbnd” function in MATLAB. If both the FFA-NIC cocrystal and FFA I solids were found in the solid residues of a sample, the measured concentrations of FFA ( CFFAexp ) and NIC ( CNICexp ) were the transition concentrations at the eutectic point.

[3] = DDW with PEG (1 mg/mL) + PVP-VA (0.2 mg/mL)
[4] = DDW with SLP (0.2 mg/mL) + PVP-VA (0.2 mg/mL)
[5] = PBS pH 4.5 with PEG (1 mg/mL) + PVP-VA (0.2 mg/mL)
[6] = PBS pH 4.5 with PVP-VA (0.2 mg/mL)
[7] = PBS pH 4.5 with SLP (0.2 mg/mL)
[8] = PBS pH 4.5 with SLP (0.2 mg/mL) + PVP-VA (0.2 mg/mL)

- incongruent indicator k(t) (molar FFA/NIC in solution) ([1]; at 5 min): 0.03
- incongruent indicator k(t) (molar FFA/NIC in solution) ([1]; at 60 min): 0.07
- FFA DPP ([1]; PBS pH 4.5, powder mixture with PEG (1 mg/mL) + PVP-VA (0.2 mg/mL)): 36%
- FFA DPP ([1]; PBS pH 4.5, powder mixture with PEG (1 mg/mL)): 11%
- FFA concentration at the end of the test ([1]; PBS pH 4.5, powder mixture with PVP-VA): 17.38 µg/mL
- FFA DPP ([1]; PBS pH 4.5, powder mixture with PVP-VA (0.2 mg/mL)): 92%
- maximum supersaturated FFA concentration ([1]; PBS pH 4.5, powder mixture with PVP-VA, at 60 min): 19.65 µg/mL
- FFA DPP ([1]; PBS pH 4.5, powder mixture with SLP (0.1 mg/mL) + PVP-VA (0.4 mg/mL)): 150%
- FFA DPP ([1]; PBS pH 4.5, powder mixture with SLP (0.2 mg/mL) + PVP-VA (0.2 mg/mL)): 159%
- FFA DPP ([1]; PBS pH 4.5, powder mixture with SLP (0.2 mg/mL) + PVP-VA (0.4 mg/mL)): 179%
- FFA DPP ([1]; PBS pH 4.5, powder mixture with SLP (0.2 mg/mL) + PVP-VA (0.8 mg/mL)): 204%
- FFA DPP ([1]; PBS pH 4.5, powder mixture with SLP (0.2 mg/mL)): 2%
- solid residues after dissolution tests (PXRD) ([1]; all dissolution tests in PBS pH 4.5): FFA III solids were crystallised
- Ratio of FFA concentration at eutectic point with parent drug ([2]; DDW with PEG (1 mg/mL)): 4.47
- Ratio of FFA concentration at eutectic point with parent drug [2, 3]: 7.27
- Ratio of cocrystal solubility with parent drug [2, 3]: 4382.27
- FFA concentration at eutectic point [2, 3]: 0.26 µmol/mL
- Ksp [2, 3]: 156.76 μmol^2/mL^2
- SAB [2, 3]: 12.52 µmol/mL
- FFA concentration at eutectic point ([2]; DDW with PEG (1 mg/mL)): 0.16 µmol/mL
- Ksp ([2]; DDW with PEG (1 mg/mL)): 136.09 μmol^2/mL^2
- SAB ([2]; DDW with PEG (1 mg/mL)): 11.67 µmol/mL
- Ratio of FFA concentration at eutectic point with parent drug ([2]; DDW with PVP-VA (0.2 mg/mL)): 23.20
- Ratio of cocrystal solubility with parent drug ([2]; DDW with PVP-VA (0.2 mg/mL)): 4805.23
- FFA concentration at eutectic point ([2]; DDW with PVP-VA (0.2 mg/mL)): 0.83 µmol/mL
- Ksp ([2]; DDW with PVP-VA (0.2 mg/mL)): 171.89 μmol^2/mL^2
- SAB ([2]; DDW with PVP-VA (0.2 mg/mL)): 13.11 µmol/mL
- Ratio of FFA concentration at eutectic point with parent drug ([2]; DDW with SLP (0.2 mg/mL)): 4.47
- Ratio of cocrystal solubility with parent drug ([2]; DDW with SLP (0.2 mg/mL)): 3218.49
- Ratio of FFA concentration at eutectic point with parent drug [2, 4]: 31.03
- Ratio of cocrystal solubility with parent drug [2, 4]: 6264.77
- FFA concentration at eutectic point [2, 4]: 1.11 µmol/mL
- Ksp [2, 4]: 224.10 μmol^2/mL^2
- SAB [2, 4]: 14.97 µmol/mL
- FFA concentration at eutectic point ([2]; DDW with SLP (0.2 mg/mL)): 0.16 µmol/mL
- Ratio of FFA concentration at eutectic point with parent drug ([2]; DDW, pure solution): 6.71
- Ratio of cocrystal solubility with parent drug ([2]; DDW, pure solution): 2649.04
- FFA concentration at eutectic point ([2]; DDW, pure solution): 0.24 µmol/mL
- Ksp ([2]; DDW, pure solution): 94.76 μmol^2/mL^2
- SAB ([2]; DDW, pure solution): 9.73 µmol/mL
- Ratio of FFA concentration at eutectic point with parent drug ([2]; PBS pH 4.5, pure solution): 2.46
- Ratio of cocrystal solubility with parent drug ([2]; PBS pH 4.5, pure solution): 1535.91
- FFA concentration at eutectic point ([2]; PBS pH 4.5, pure solution): 0.16 µmol/mL
- Ksp ([2]; PBS pH 4.5, pure solution): 99.78 μmol^2/mL^2
- SAB ([2]; PBS pH 4.5, pure solution): 9.99 µmol/mL
- Ratio of FFA concentration at eutectic point with parent drug ([2]; PBS pH 4.5 with PEG (1 mg/mL)): 4.93
- Ratio of cocrystal solubility with parent drug ([2]; PBS pH 4.5 with PEG (1 mg/mL)): 1601.02
- Ratio of FFA concentration at eutectic point with parent drug [2, 5]: 10.16
- Ratio of cocrystal solubility with parent drug [2, 5]: 2171.41
- FFA concentration at eutectic point [2, 5]: 0.66 µmol/mL
- Ksp [2, 5]: 141.26 μmol^2/mL^2
- SAB [2, 5]: 11.89 µmol/mL
- FFA concentration at eutectic point ([2]; PBS pH 4.5 with PEG (1 mg/mL)): 0.32 µmol/mL
- Ksp ([2]; PBS pH 4.5 with PEG (1 mg/mL)): 104.01 μmol^2/mL^2
- SAB ([2]; PBS pH 4.5 with PEG (1 mg/mL)): 10.20 µmol/mL
- Ratio of FFA concentration at eutectic point with parent drug [2, 6]: 6.93
- Ratio of cocrystal solubility with parent drug [2, 6]: 2040.80
- FFA concentration at eutectic point [2, 6]: 0.45 µmol/mL
- Ksp [2, 6]: 132.58 μmol^2/mL^2
- SAB [2, 6]: 11.51 µmol/mL
- Ratio of FFA concentration at eutectic point with parent drug [2, 7]: 2.46
- Ratio of cocrystal solubility with parent drug [2, 7]: 1772.19
- Ratio of FFA concentration at eutectic point with parent drug [2, 8]: 10.16
- Ratio of cocrystal solubility with parent drug [2, 8]: 2443.18
- FFA concentration at eutectic point [2, 8]: 0.66 µmol/mL
- Ksp [2, 8]: 158.72 μmol^2/mL^2
- SAB [2, 8]: 12.60 µmol/mL
- FFA concentration at eutectic point [2, 7]: 0.16 µmol/mL
- potential increase in the FFA solubility based on FFA concentration at eutectic point ([2]; in DDW): 30 fold
- potential increase in the FFA solubility based on FFA concentration at eutectic point ([2]; in PBS pH 4.5): tenfold
- increase of the FFA solubility achieved by cocrystal (by Eq. 1 cocrystal solubility) ([2]; in some cases, Table III): > 1000 fold
SMILES: NC(=O)c1cccnc1.O=C(O)c1ccccc1Nc1cccc(C(F)(F)F)c1 [FFA-NIC cocrystal]
- solid residues after dissolution tests (PXRD) ([1]; PBS pH 4.5, groups SLP (0.1 mg/mL) + PVP-VA (0.4 mg/mL) and SLP (0.2 mg/mL) + PVP-VA (0.8 mg/mL)): FFA-NIC cocrystals were also found in the solid residues
